Source: patent US20250213555A1, “SUBSTITUTED TETRAHYDROFURAN ANALOGS AS MODULATORS OF SODIUM CHANNELS” (VERTEX PHARMACEUTICALS INCORPORATED, priority 2021, published 2025)

Target: human Nav 1.8 (Homo sapiens, UniProt Q9Y5Y9)
Assay: E-VIPR assay detecting and measuring Nav inhibition properties
Type: cell-based
Settings: HEK cells expressing a truncated form of human Nav 1.8; compound numbers without "*" (not marked as run in the presence of human serum); read-out: measured IC50 value in the E-VIPR Assay
Procedure, shortened: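 Nav inhibition was read by E-VIPR: cells were electrically stimulated while coumarin/oxonol FRET emissions were recorded. Cells were HEK expressing a truncated human Nav 1.8 and co-transduced with KIR2.1, and were assayed in 25% final human serum.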

human Nav 1.8, sequence (Q9Y5Y9 126-399 limits assumed): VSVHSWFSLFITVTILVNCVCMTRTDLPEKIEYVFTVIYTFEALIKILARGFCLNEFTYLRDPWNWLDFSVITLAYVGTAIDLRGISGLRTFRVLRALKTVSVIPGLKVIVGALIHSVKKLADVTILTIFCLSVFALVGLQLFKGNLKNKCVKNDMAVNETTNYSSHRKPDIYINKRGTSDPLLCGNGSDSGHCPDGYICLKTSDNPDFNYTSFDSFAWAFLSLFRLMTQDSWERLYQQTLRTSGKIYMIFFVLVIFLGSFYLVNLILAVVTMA
human Nav 1.8, sequence (Q9Y5Y9 660-890 limits assumed): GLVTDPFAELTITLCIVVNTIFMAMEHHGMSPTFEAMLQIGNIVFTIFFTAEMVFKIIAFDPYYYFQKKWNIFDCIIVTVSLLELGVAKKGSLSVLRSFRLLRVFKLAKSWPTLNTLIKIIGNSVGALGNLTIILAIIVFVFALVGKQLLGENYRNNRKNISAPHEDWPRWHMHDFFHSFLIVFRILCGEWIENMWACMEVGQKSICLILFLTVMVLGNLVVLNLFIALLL
human Nav 1.8, sequence (Q9Y5Y9 1148-1722 limits assumed): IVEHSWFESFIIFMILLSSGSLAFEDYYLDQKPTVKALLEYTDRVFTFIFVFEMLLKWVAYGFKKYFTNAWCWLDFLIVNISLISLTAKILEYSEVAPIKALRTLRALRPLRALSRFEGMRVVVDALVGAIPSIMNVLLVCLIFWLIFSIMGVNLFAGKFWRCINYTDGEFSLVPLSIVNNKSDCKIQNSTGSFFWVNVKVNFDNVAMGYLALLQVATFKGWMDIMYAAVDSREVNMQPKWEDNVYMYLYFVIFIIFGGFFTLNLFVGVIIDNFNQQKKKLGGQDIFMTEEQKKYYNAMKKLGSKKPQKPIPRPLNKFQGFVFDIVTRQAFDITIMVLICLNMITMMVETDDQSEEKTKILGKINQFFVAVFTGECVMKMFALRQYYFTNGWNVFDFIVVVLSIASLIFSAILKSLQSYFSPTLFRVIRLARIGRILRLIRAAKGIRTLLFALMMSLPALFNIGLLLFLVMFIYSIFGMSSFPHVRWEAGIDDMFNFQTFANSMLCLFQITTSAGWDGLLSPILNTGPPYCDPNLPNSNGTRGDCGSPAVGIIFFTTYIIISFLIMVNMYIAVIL

| IC50 [nM] | SMILES |
| --- | --- |
| < 10 | COc1c([C@H]2[C@H](C(=O)Nc3ccnc(C(=O)N4C[C@@H](N)[C@H](F)C4)c3)O[C@@](C)(C(F)(F)F)[C@H]2C)ccc(F)c1F [Compound 258, (2R,3S,4S,5R)-N-(2-((3R,4R)-3-amino-4-fluoropyrrolidine-1-carbonyl)pyridin-4-yl)-3-(3,4-difluoro-2-methoxyphenyl)-4,5-dimethyl-5-(trifluoromethyl)tetrahydrofuran-2-carboxamide] |
| < 10 | COc1c([C@H]2[C@H](C(=O)Nc3ccnc(C(=O)N4C[C@@H](N)[C@@H](F)C4)c3)O[C@@](C)(C(F)(F)F)[C@H]2C)ccc(F)c1F [Compound 259, (2R,3S,4S,5R)-N-(2-((3R,4S)-3-amino-4-fluoropyrrolidine-1-carbonyl)pyridin-4-yl)-3-(3,4-difluoro-2-methoxyphenyl)-4,5-dimethyl-5-(trifluoromethyl)tetrahydrofuran-2-carboxamide] |
| < 10 | COc1c([C@H]2[C@H](C(=O)Nc3ccnc(C(=O)N4C[C@H](N)[C@@H](F)C4)c3)O[C@@](C)(C(F)(F)F)[C@H]2C)ccc(F)c1F [Compound 260, (2R,3S,4S,5R)-N-(2-((3S,4S)-3-amino-4-fluoropyrrolidine-1-carbonyl)pyridin-4-yl)-3-(3,4-difluoro-2-methoxyphenyl)-4,5-dimethyl-5-(trifluoromethyl)tetrahydrofuran-2-carboxamide] |
| < 10 | COc1c([C@H]2[C@H](C(=O)Nc3ccnc(C(=O)N4C[C@@H](N)[C@@H](OC)C4)c3)O[C@@](C)(C(F)(F)F)[C@H]2C)ccc(F)c1F [Compound 261, (2R,3S,4S,5R)-N-(2-((3R,4S)-3-amino-4-methoxypyrrolidine-1-carbonyl)pyridin-4-yl)-3-(3,4-difluoro-2-methoxyphenyl)-4,5-dimethyl-5-(trifluoromethyl)tetrahydrofuran-2-carboxamide] |
| < 10 | COc1c([C@H]2[C@H](C(=O)Nc3ccnc(C(=O)N4C[C@H](OC)[C@@H](N)C4)c3)O[C@@](C)(C(F)(F)F)[C@H]2C)ccc(F)c1F [Compound 262, (2R,3S,4S,5R)-N-(2-((3S,4S)-3-amino-4-methoxypyrrolidine-1-carbonyl)pyridin-4-yl)-3-(3,4-difluoro-2-methoxyphenyl)-4,5-dimethyl-5-(trifluoromethyl)tetrahydrofuran-2-carboxamide] |
| < 10 | COc1c([C@H]2[C@H](C(=O)Nc3ccnc(C(=O)N4C[C@@H](N)[C@H](OC)C4)c3)O[C@@](C)(C(F)(F)F)[C@H]2C)ccc(F)c1F [Compound 263, (2R,3S,4S,5R)-N-(2-((3R,4R)-3-amino-4-methoxypyrrolidine-1-carbonyl)pyridin-4-yl)-3-(3,4-difluoro-2-methoxyphenyl)-4,5-dimethyl-5-(trifluoromethyl)tetrahydrofuran-2-carboxamide] |
| 10 to 100 | COc1c([C@H]2[C@H](C(=O)Nc3ccnc(C(=O)N4CCC45CN(C)C5)c3)O[C@@](C)(C(F)(F)F)[C@H]2C)ccc(F)c1F [Compound 266, (2R,3S,4S,5R)-3-(3,4-difluoro-2-methoxyphenyl)-4,5-dimethyl-N-(2-(6-methyl-1,6-diazaspiro[3.3]heptane-1-carbonyl)pyridin-4-yl)-5-(trifluoromethyl)tetrahydrofuran-2-carboxamide] |
| 100 to 1000 | COc1c([C@H]2[C@H](C(=O)Nc3ccnc(C(=O)NC[C@@H]4CC(F)(F)CN4C)c3)O[C@@](C)(C(F)(F)F)[C@H]2C)ccc(F)c1F [Compound 267, N-(((S)-4,4-difluoro-1-methylpyrrolidin-2-yl)methyl)-4-((2R,3S,4S,5R)-3-(3,4-difluoro-2-methoxyphenyl)-4,5-dimethyl-5-(trifluoromethyl)tetrahydrofuran-2-carboxamido)picolinamide] |
| < 10 | COc1c([C@H]2[C@H](C(=O)Nc3ccnc(C(=O)N4CC5(CN(C)C5)C4)c3)O[C@@](C)(C(F)(F)F)[C@H]2C)ccc(F)c1F [Compound 268, (2R,3S,4S,5R)-3-(3,4-difluoro-2-methoxyphenyl)-4,5-dimethyl-N-(2-(6-methyl-2,6-diazaspiro[3.3]heptane-2-carbonyl)pyridin-4-yl)-5-(trifluoromethyl)tetrahydrofuran-2-carboxamide] |
| < 10 | COc1c([C@H]2[C@H](C(=O)Nc3ccnc(C(=O)N(C)[C@@H]4CCN(C)C4)c3)O[C@@](C)(C(F)(F)F)[C@H]2C)ccc(F)c1F [Compound 269, 4-((2R,3S,4S,5R)-3-(3,4-difluoro-2-methoxyphenyl)-4,5-dimethyl-5-(trifluoromethyl)tetrahydrofuran-2-carboxamido)-N-methyl-N-((R)-1-methylpyrrolidin-3-yl)picolinamide] |
| 10 to 100 | COc1c([C@H]2[C@H](C(=O)Nc3ccnc(C(=O)N4CC5(CCCN5C)C4)c3)O[C@@](C)(C(F)(F)F)[C@H]2C)ccc(F)c1F [Compound 270, (2R,3S,4S,5R)-3-(3,4-difluoro-2-methoxyphenyl)-4,5-dimethyl-N-(2-(5-methyl-2,5-diazaspiro[3.4]octane-2-carbonyl)pyridin-4-yl)-5-(trifluoromethyl)tetrahydrofuran-2-carboxamide] |
| < 10 | COc1c([C@H]2[C@H](C(=O)Nc3ccnc(C(=O)NCCN(C)C)c3)O[C@@](C)(C(F)(F)F)[C@H]2C)ccc(F)c1F [Compound 271, 4-((2R,3S,4S,5R)-3-(3,4-difluoro-2-methoxyphenyl)-4,5-dimethyl-5-(trifluoromethyl)tetrahydrofuran-2-carboxamido)-N-(2-(dimethylamino)ethyl)picolinamide] |
| 10 to 100 | COc1c([C@H]2[C@H](C(=O)Nc3ccnc(C(=O)N4CCN(C)C[C@@H]4C)c3)O[C@@](C)(C(F)(F)F)[C@H]2C)ccc(F)c1F [Compound 272, (2R,3S,4S,5R)-3-(3,4-difluoro-2-methoxyphenyl)-N-(2-((S)-2,4-dimethylpiperazine-1-carbonyl)pyridin-4-yl)-4,5-dimethyl-5-(trifluoromethyl)tetrahydrofuran-2-carboxamide] |
| < 10 | COc1c([C@H]2[C@H](C(=O)Nc3ccnc(C(=O)N(C)CCN(C)C)c3)O[C@@](C)(C(F)(F)F)[C@H]2C)ccc(F)c1F [Compound 273, 4-((2R,3S,4S,5R)-3-(3,4-difluoro-2-methoxyphenyl)-4,5-dimethyl-5-(trifluoromethyl)tetrahydrofuran-2-carboxamido)-N-(2-(dimethylamino)ethyl)-N-methylpicolinamide] |
| < 10 | COc1c([C@H]2[C@H](C(=O)Nc3ccnc(C(=O)N4CCN(C)C[C@H]4C)c3)O[C@@](C)(C(F)(F)F)[C@H]2C)ccc(F)c1F [Compound 274, (2R,3S,4S,5R)-3-(3,4-difluoro-2-methoxyphenyl)-N-(2-((R)-2,4-dimethylpiperazine-1-carbonyl)pyridin-4-yl)-4,5-dimethyl-5-(trifluoromethyl)tetrahydrofuran-2-carboxamide] |
| 10 to 100 | COc1c([C@H]2[C@H](C(=O)Nc3ccnc(C(=O)NC4CN(C)C4)c3)O[C@@](C)(C(F)(F)F)[C@H]2C)ccc(F)c1F [Compound 275, 4-((2R,3S,4S,5R)-3-(3,4-difluoro-2-methoxyphenyl)-4,5-dimethyl-5-(trifluoromethyl)tetrahydrofuran-2-carboxamido)-N-(1-methylazetidin-3-yl)picolinamide] |
| 10 to 100 | COc1c([C@H]2[C@H](C(=O)Nc3ccnc(C(=O)N4C5CC4CN(C)C5)c3)O[C@@](C)(C(F)(F)F)[C@H]2C)ccc(F)c1F [Compound 276, (2R,3S,4S,5R)-3-(3,4-difluoro-2-methoxyphenyl)-4,5-dimethyl-N-(2-(3-methyl-3,6-diazabicyclo[3.1.1]heptane-6-carbonyl)pyridin-4-yl)-5-(trifluoromethyl)tetrahydrofuran-2-carboxamide] |
| 10 to 100 | COc1c([C@H]2[C@H](C(=O)Nc3ccnc(C(=O)N[C@H]4CCN(C)C4)c3)O[C@@](C)(C(F)(F)F)[C@H]2C)ccc(F)c1F [Compound 277, 4-((2R,3S,4S,5R)-3-(3,4-difluoro-2-methoxyphenyl)-4,5-dimethyl-5-(trifluoromethyl)tetrahydrofuran-2-carboxamido)-N-((S)-1-methylpyrrolidin-3-yl)picolinamide] |
| 10 to 100 | COc1c([C@H]2[C@H](C(=O)Nc3ccnc(C(=O)N4C[C@H]5C[C@@H]4CN5C)c3)O[C@@](C)(C(F)(F)F)[C@H]2C)ccc(F)c1F [Compound 279, (2R,3S,4S,5R)-3-(3,4-difluoro-2-methoxyphenyl)-4,5-dimethyl-N-(2-((1R,4R)-5-methyl-2,5-diazabicyclo[2.2.1]heptane-2-carbonyl)pyridin-4-yl)-5-(trifluoromethyl)tetrahydrofuran-2-carboxamide] |
| < 10 | COc1c([C@H]2[C@H](C(=O)Nc3ccnc(C(=O)N4CCN(C)C(C)(C)C4)c3)O[C@@](C)(C(F)(F)F)[C@H]2C)ccc(F)c1F [Compound 280, (2R,3S,4S,5R)-3-(3,4-difluoro-2-methoxyphenyl)-4,5-dimethyl-5-(trifluoromethyl)-N-(2-(3,3,4-trimethylpiperazine-1-carbonyl)pyridin-4-yl)tetrahydrofuran-2-carboxamide] |
| 10 to 100 | COc1c([C@H]2[C@H](C(=O)Nc3ccnc(C(=O)N[C@H]4CN(C)C[C@@H]4OC)c3)O[C@@](C)(C(F)(F)F)[C@H]2C)ccc(F)c1F [Compound 281, 4-((2R,3S,4S,5R)-3-(3,4-difluoro-2-methoxyphenyl)-4,5-dimethyl-5-(trifluoromethyl)tetrahydrofuran-2-carboxamido)-N-((3S,4S)-4-methoxy-1-methylpyrrolidin-3-yl)picolinamide] |

| SMILES | IC50 [nM] |
| --- | --- |
| COc1c([C@H]2[C@H](C(=O)Nc3ccnc(C(=O)N4CC5CC(C4)N5C)c3)O[C@@](C)(C(F)(F)F)[C@H]2C)ccc(F)c1F [Compound 278, (2R,3S,4S,5R)-3-(3,4-difluoro-2-methoxyphenyl)-4,5-dimethyl-N-(2-(6-methyl-3,6-diazabicyclo[3.1.1]heptane-3-carbonyl)pyridin-4-yl)-5-(trifluoromethyl)tetrahydrofuran-2-carboxamide] | < 10 |
